The subject of data set [1] is rats. Put plainly: Chronic toxicity, daily intramuscular administration for 6 months. To be noted: i.m. daily 0.3, 1, 3 mg/kg for 6 months. It counts as in vivo. How it is done:
Chronic toxicity of L-Lys-L-Glu dipeptide obtained by the claimed method was studied during its longitudinal administration to rats with body weight […]. The animals of experimental groups were exposed daily to single intramuscular administration of the substance in doses 1 mg/kg, 0.3 mg/kg, 3 mg/kg in 0.5 ml of sodium chloride solution for 6 months. There was analyzed animal behavior, as well as chow and water consumption, condition of hairy and of mucous surfaces. The animals were weighed daily during the first 3 months of the experiment and then once a month. In 3 months after the onset of administration and upon completion of the experiment hematological and biochemical examinations functions of cardiovascular system, liver, pancreas. kidney, and adrenal gland were conducted and estimated. Upon the termination of the drug administration some animals were exposed to pathomorphological examination with the purpose of studying the state of various departments of the brain and spinal marrow, heart, aorta, lungs, liver, organs of endocrine and immune systems.

The test system of data set [2] is sluggish-granulating wounds after surgical treatment for cancer. Nature of the data set: Clinical complex treatment of cancer patients with post-operative complications. Type of data set: in vivo. On the procedure: In the pre-operation period, the patients underwent a radical-scheme, radiation therapy employing large fields of complex configuration on the linear electron accelerator (its power is 4,3 Mev) and gamma-therapy device “Rokus-M” in the brake mode. In particular cases, one of the components of the combined treatment was chemotherapy.
Beginning from the third day after the operation, 1 μkg of L-Lys-L-Glu dipeptide was injected intramuscularly daily during 10 days.

For data set [3], the system named is sluggish-granulating wounds and phlegmon of the maxillofacial zone. Nature of the data set: Clinical complex treatment of pyo-inflammatory diseases of different localization. The settings on record: patients, 1 μkg i.m. every day during ten days. It counts as in vivo. How it is done:
1 μkg of the preparation was injected intramuscularly, every day during ten days. Effectiveness of the treatment was evaluated in dynamics according to the changes in activity of wound enzymes and time of healing.

Data set [4] relates to inflammation of salivary glands and sialolithic disease. Put plainly: Clinical treatment of inflammation of salivary glands and sialolithic disease. To be noted: 1 μkg i.m. daily for 5 days. It counts as in vivo, patients. The source says:
45 patients were being observed. Of these, 27 people had inflammations of the salivary glands, 4 of whom had parotitis. 18 people suffered sialolithic disease of the submandibular gland. The average age of the patients was 35-40. All the patients with the sialolithic disease had the stones extracted. 30 patients (15 of them had inflammation of the salivary gland and the other 15 had sialolithic disease) underwent daily intramuscular injections of L-Lys-L-Glu dipeptide 1 μkg. for 5 days.
The patients of the control group underwent standard treatment: antibacterial, desensitization therapy, iodine-dimexid dressings, physical therapy (ultrasonics, 5-10% potassium iodide electrotherapy on the gland area), local treatment (washing the glands with the solution of antiseptics and antibiotics).

Data set [5] relates to duodenum mucous membrane cells. Put plainly: Regeneration of the intestinal mucous membrane after radiation injury. It counts as in vivo, white male rats of the Wistar line. To be noted: 8th day. How it is done:
The work has been performed on 24 two-month-old white male rats of the Wistar line, weighing 90-100 grams. The following three groups of animals were researched;
2 group—control (irradiated animals);
3 group—irradiated animals injected with L-Lys-L-Glu dipeptide.
A general single γ—irradiation of 6 Gy, inducing “the syndrome of intestinal death”, was made by the cobalt apparatus GUB 20000, with the dose capacity of 200 rad/min.
L-Lys-L-Glu dipeptide was injected 24 hours after the irradiation—0.5 μkg in 0.5 ml of the […]—intraperitoneally during 5 days. The animals from the first and second groups received the […] by the same scheme.
The study of L-Lys-L-Glu dipeptide's action has been performed on the proximal section of the duodenum of irradiated animals. The animals were killed under nembutal narcosis (50 mg/kg on the 8th day after irradiation (beginning of the period of repair regeneration). Pieces of the duodenum were being preserved during 24 hours by Karnovsky for the electronic microscopy.
The ultra-structural research was conducted under the JEM-100S microscope (JEOL, Japan) at the ultra-thin microscopic sections prepared on the LKB-7A ultra-microtome (LKB, Sweden) and contrasted by uranilacetatc and lead cytrate.
Mast cells were selectively stained with 1% solution of toluidine blue (Fluka) in 0,5 M HCl, with pH—0.5 (8,9).
To reveal MTL-positive cells, were used rabbits' antibodies to metal-tioneins (1-2000).
Immunohistochemical identification of antigenes at the histological sections was made according to the main requirements to immune-peroxydase methods (10,11).
The quantity research was conducted with the help of the system of computer analysis of microscopic images—IMSTAR (Imstar, France)—the Morphostar-2 and Colquant-2 license applied software were employed, in accordance with the general principles of stereology in morphometry (12, 13). For each animal, the calculation of corresponding structures was made In ten visual eye sights by three sections of the studied organ. The mitotic index (1mit) and the index of proliferating ability (Ipcna) of the duodenum cells were defined in 10-15 standard sections of crypts, with the overall contents of not less than 1000 nuclei of enterocytes. The test area for finding serotonin-positive and mast cells covered not less than 3 mm^2. MML-positive cells were counted in 100 duodenum crypts.

In data set [6] the test system is white outbred mice. Nature of the data set: Sub-acute toxicity, daily intramuscular administration for 90 days. To be noted: i.m. daily 0.3, 1, 3 mg/kg for 90 days; doses exceeding therapeutic 100-1000 times. Type of data set: in vivo. How it is done:
The study of sub-acute toxicity of L-Lys-L-Glu dipeptide is carried out on 60 white outbred mice with body weight […]. The animals of experimental groups were exposed daily to a single administration of the drug intramuscularly for 90 days in doses 1 mg/kg, 0.3 mg/kg, 3 mg/kg in 0.5 ml of sodium chloride solution. The animals of control groups were administered with sodium chloride solution in the same quantity.
During the whole period of Investigation the animals were under daily control. There was monitored animal behavior, as well as chow and water consumption, condition of hairy and mucous surfaces. The animals were weighed weekly. Morphological composition and properties of peripheral blood were studied prior to and an the 30th, 60th, and 90th day of drug administration. Biochemical and coagulologic indices of the blood were studied upon experiment completion.

Setting [7] is: patients with sialolithic disease.
Setting [8] is: irradiated rats 6 Gy, 0.5 μkg i.p. during 5 days, duodenum.
The mark [9] stands for this setting: irradiated rats 6 Gy, 0.5 μkg i.p. during 5 days, duodenum crypts.

Here are results for one compound from US6642201B1, “Use of a dipeptide for stimulating repair processes” (priority 1998, dated 2003).

Values joined by “and” are separate entries in the source; they are usually repeats but may differ in a detail not shown here. Equal entries are not always repeated. Where a SMILES comes first, the peptide text is derived from it.

Regarding `NCCCC[C@H](N)C(=O)N[C@@H](CCC(=O)O)C(=O)O` [L-Lys-L-Glu dipeptide, L-lysil-L-glutamic acid] (H-Lys-Glu-OH), in data set [1] (doses exceeding therapeutic 100-1000 times), the “side effects, chronic toxicity” value is “absence of side effects”. For the same compound, the “pathological changes (general state, blood indices, intrinsic organs, cardio-vascular, respiratory, liver and kidney functions)” value in data set [1] (rats) is “no pathological changes”. Besides, the “edema and pain in the wound area” value in data set [2] (1 μkg i.m. daily during 10 days from third day after operation) is “helped to reduce edema and pain in the wound area”. Further, the time of treatment entry in data set [2] (complex treatment) is listed as “reduces the time of their treatment”. Further, in data set [3], the “activity of wound enzymes” value is listed as “increased the activity of wound ferments in the first phase of the wound process”, the “clearance of the wounds from necrotic tissues” value is on record as “accelerate clearance of the wounds from necrotic tissues” and the treatment period result is given as “reduction of the treatment period”. Also, the “pains in the gland and discharge of pus” value in data set [4] (patients with inflammation of the salivary gland) is “on the fourth-fifth day after the treatment, stopped having pains in the gland and the discharge of pus from the gland ducts”. Further, in data set [4] (setting [7]), the “discharge of pus from the gland ducts” value is listed as “stopped having the discharge of pus from the gland ducts”; the “swelling and infiltration of soft tissues and mucous membrane of the mouth cavity” value is on record as “resolved on the third fourth day after the operation”. Moreover, the period of treatment entry in data set [4] (patients) is given as “shortened the period of treatment”. Besides, in data set [5] (setting [8]), the “NMC/1 mm^2 (quantity of mast cells/1 square mm)” value is 24 ± 3 /1 mm^2, the “NMT/100 crypts (quantity of L-positive cells in 100 intestine crypts)” value is reported as 102 ± 9 /100 crypts and the “Pser (volume density of serotonin-immunopositive cells)” value is recorded as 0.71 ± 0.09%. In data set [5] (setting [9]), the “IPCNA (index of cell proliferative ability-PCNA)” value is 49.89% and 49.8 ± 0.7 %; the “Imit (mitotic index)” value was 4.7% and 4.7 ± 0.1%. Also, in data set [5] (irradiated rats), the “MTL-positive cells in the crypts' base” value is “tendency to the increase of number and intensity of immune-staining”; the “quantitative density of enterochromaffinn cells” value is given as “practically gets equal to that of healthy animals”. Besides, in data set [6], the “side effects, sub-acute toxicity” value is recorded as “absence of side effects”.
